Columns and labels:
[1] = test system: CT1 primary colon tumor xenograft; assay: CT1 primary colon tumor xenograft, combination with Irinotecan; type: in vivo, SCID beige female mice; conditions: 10 mg/kg IP once per day for the first 5 days
Protocol: Single agent in vivo efficacy of murine antibodies 14F7.1, 18G7.1, 5B10.1, 14A8.1, 1B3.5 was evaluated in a primary colon tumor xenograft model system using CT1 primary xenograft cells. CT1 is a primary colorectal (CRC) in vivo xenograft tumor established from a fresh CRC patient tumor sample. The mutational status was determined by Ion Torrent deep sequencing to identify oncogene mutations. Approximately 5-15% of CT1 tumors express GPR49. SCID beige female mice were inoculated with CT1 tumor cells and monitored for tumor growth. Mice were randomized at day 0 into groups of 10 when mean tumor volume reached 175 mm^3. Chemotherapeutic Irinotecan was administered IP at 10 mg/kg once per day for the first 5 days. The antibodies were administered intraperitoneally (i.p.) at 15 mg/kg administered twice weekly for 4 weeks. Tumors were measured at the indicated intervals post-inoculation for total tumor volume.

[2] = test system: colon tumor cells re-implanted in secondary recipients; assay: Secondary transplant tumor formation after GPR49 mAb+irinotecan; type: in vivo, mice; conditions: 140 day follow-up
Excerpt: Isolated tumor cells from control or GPR49 mAb+irinotecan treated tumors from the in vivo study outlined in Example 3 were harvested, pooled, dissociated and re-implanted in a limiting dilution secondary transplant assay to measure cancer stem cell frequency. For each treatment group, 8 mice were implanted with 10, 30, 100 cells. […]

GPR49-Fc = molecular target: T1, GPR49-Fc (Homo sapiens, UniProt O75473); assay: Solution affinity surface plasmon resonance of RSPO-1 on GPR49-Fc; conditions: initial binding rates, GPR49-Fc competition
T1 construct: FLAG (C)
Protocol: Methods: Binding of RSPO to GPR49 was analyzed using solution affinity surface plasmon resonance (Day E S, et al. Biochemistry. 2005 Feb. 15; 44(6):1919-31). The method utilizes conditions of so-called “mass-transport-limited” binding, in which the initial rate of ligand binding (protein binding to the sensor chip) is proportional to the concentration of ligand in solution (BIApplications Handbook (1994) Chapter 6: Concentration measurement, pp 6-1-6-10, Pharmacia Biosensor AB). Under these conditions, binding of the soluble analyte (protein flowing over chip surface) to the immobilized protein on the chip is fast compared to the diffusion of the analyte into the dextran matrix on the chip surface. Therefore, the diffusion properties of the analyte and the concentration of analyte in solution flowing over the chip surface determine the rate at which analyte binds to the chip. In this experiment, the concentration of free RSPO-1 in solution is determined by the initial rate of binding to a CM5 Biacore chip containing immobilized GPR49-Fc. Into these RSPO-1 solutions were titrated the competing GPR49-Fc.

T1 sequence (O75473 with tags, fused parts or gaps): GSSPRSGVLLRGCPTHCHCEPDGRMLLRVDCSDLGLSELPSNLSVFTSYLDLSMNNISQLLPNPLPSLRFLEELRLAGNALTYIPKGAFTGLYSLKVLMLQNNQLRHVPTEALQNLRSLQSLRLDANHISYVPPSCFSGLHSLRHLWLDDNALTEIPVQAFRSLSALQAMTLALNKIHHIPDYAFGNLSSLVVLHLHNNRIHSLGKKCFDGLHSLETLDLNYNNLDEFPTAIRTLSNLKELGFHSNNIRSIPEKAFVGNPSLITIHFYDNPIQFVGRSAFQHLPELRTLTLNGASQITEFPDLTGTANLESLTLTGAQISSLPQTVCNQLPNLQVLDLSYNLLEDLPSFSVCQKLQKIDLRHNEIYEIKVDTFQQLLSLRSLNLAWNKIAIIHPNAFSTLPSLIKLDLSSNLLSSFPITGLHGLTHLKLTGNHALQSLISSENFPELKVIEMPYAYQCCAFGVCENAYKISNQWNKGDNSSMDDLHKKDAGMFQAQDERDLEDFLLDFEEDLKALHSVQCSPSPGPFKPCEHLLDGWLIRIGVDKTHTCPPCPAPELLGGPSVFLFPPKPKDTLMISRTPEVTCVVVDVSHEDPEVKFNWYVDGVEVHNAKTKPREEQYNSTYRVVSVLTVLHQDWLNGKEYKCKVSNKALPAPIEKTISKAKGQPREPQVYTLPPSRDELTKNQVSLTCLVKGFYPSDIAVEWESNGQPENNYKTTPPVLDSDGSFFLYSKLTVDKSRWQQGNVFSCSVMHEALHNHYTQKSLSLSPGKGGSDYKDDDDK

Row | binding profile (GPR49-Fc) | Molecule | tumor inhibition, Irinotecan alone [1] | average tumor size [2]
1 |  | CCc1c2c(nc3ccc(OC(=O)N4CCC(N5CCCCC5)CC4)cc13)-c1cc3c(c(=O)n1C2)COC(=O)[C@]3(O)CC [Irinotecan] | 45% | 1729 mm^3
2 | bi-phasic binding profile | R-spondin 1: R-spondin family Wnt-pathway modulator protein, purchased from R& D systems (protein, UniProt Q2MKA7 21-263, looked up) R-spondin-1: SRGIKGKRQRRISAEGSQACAKGCELCSEVNGCLKCSPKLFILLERNDIRQVGVCLPSCPPGYFDARNPDMNKCIKCKIEHCEACFSHNFCTKCKEGLYLHKGRCYPACPEGSSAANGTMECSSPAQCEMSEWSPWGPCSKKQQLCGFRRGSEERTRRVLHAPVGDHAACSDTKETRRCTVRRVPCPEGQKRRKGGQGRRENANRNLARKESKEAGAGSRRRKGQQQQQQQGTVGPLTSAGPA |  | 
